Data reported in patent publication US20200016159A1, “N3-CYCLICALLY SUBSTITUTED THIENOURACILS AND USE THEREOF” (Bayer Aktiengesellschaft, priority 2016, published 2020).

Biological target: T1, human adenosine A2b receptor (Homo sapiens, UniProt P29275)
T1 sequence (P29275 1-332): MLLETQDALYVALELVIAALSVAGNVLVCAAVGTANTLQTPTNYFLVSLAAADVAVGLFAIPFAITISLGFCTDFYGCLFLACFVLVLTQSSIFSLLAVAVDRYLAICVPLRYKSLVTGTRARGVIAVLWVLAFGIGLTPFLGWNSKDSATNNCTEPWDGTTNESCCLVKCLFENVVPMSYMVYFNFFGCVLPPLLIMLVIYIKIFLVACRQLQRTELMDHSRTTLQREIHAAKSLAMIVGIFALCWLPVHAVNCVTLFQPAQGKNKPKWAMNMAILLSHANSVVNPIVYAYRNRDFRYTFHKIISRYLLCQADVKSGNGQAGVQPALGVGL
Test: Cellular in vitro reporter gene test for A2b receptor activity (antagonism of NECA)
Format: cell-based
Set-up: expressed in transfected cells; host or cells: CHO-K1 (Chinese hamster ovary) with CRE-luciferase reporter
Conditions: recombinant CHO-K1 cells, CRE-luciferase reporter, co-incubation with EC50 concentration of NECA, 3 hours
Method in brief: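 CHO-K1 cells expressing recombinant human A2b receptor plus a CRE-driven firefly luciferase reporter. Compounds co-incubated with NECA at its same-day EC50 concentration; luminescence read 3 hours after NECA addition. IC50 values, sometimes means of several determinations rounded to two significant figures.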

| Compound | IC50 |
| --- | --- |
| Cc1c(Cn2nc[nH]c2=O)sc2c1c(=O)n([C@H]1C[C@@H]1C)c(=O)n2C [Example 220, 1,5-Dimethyl-3-[(1S,2S)-2-methylcyclopropyl]-6-[(5-oxo-4,5-dihydro-1H-1,2,4-triazol-1-yl)methyl]thieno[2,3-d]pyrimidine-2,4(1H,3H)-dione] | 33 nM |
| COCCn1c(=O)n(C2CC2C)c(=O)c2c(C)c(CN3CCNC3=O)sc21 (racemic) [Example 258, 1-(2-Methoxyethyl)-5-methyl-3-(2-methylcyclopropyl)-6-[(2-oxoimidazolidin-1-yl)methyl]thieno[2,3-d]pyrimidine-2,4(1H,3H)-dione] | 6.4 nM |
| Cc1c(CN2CCNC2=S)sc2c1c(=O)n(C1CC1)c(=O)n2CCC(F)(F)F [Example 10, 3-Cyclopropyl-5-methyl-6-[(2-thioxoimidazolidin-1-yl)methyl]-1-(3,3,3-trifluoropropyl)thieno[2,3-d]pyrimidine-2,4(1H,3H)-dione] | 1.5 nM |
| Cc1c(CN2CCNC2=O)sc2c1c(=O)n(C1CC1C)c(=O)n2C (racemic) [Example 221, 1,5-Dimethyl-3-(2-methylcyclopropyl)-6-[(2-oxoimidazolidin-1-yl)methyl]thieno[2,3-d]pyrimidine-2,4(1H,3H)-dione] | 3.3 nM |
| COCCn1c(=O)n(C2CCC2)c(=O)c2c(C)c(CN3CCNC3=NC(=O)OC)sc21 [Example 117, Methyl [1-{[3-cyclobutyl-1-(2-methoxyethyl)-5-methyl-2,4-dioxo-1,2,3,4-tetrahydrothieno[2,3-d]pyrimidin-6-yl]methyl}imidazolidin-2-ylidene]carbamate] | 1.3 nM |
| COCCn1c(=O)n(C2(C)CC2)c(=O)c2c(C)c(Cn3cc[nH]c3=O)sc21 [Example 217, 1-(2-Methoxyethyl)-5-methyl-3-(1-methylcyclopropyl)-6-[(2-oxo-2,3-dihydro-1H-imidazol-1-yl)methyl]thieno[2,3-d]pyrimidine-2,4(1H,3H)-dione] | 38 nM |
| CO[C@H]1C[C@@H](n2c(=O)c3c(C)c(Cn4nc[nH]c4=O)sc3n(CCC(F)(F)F)c2=O)C1 [Example 158, 3-(cis-3-Methoxycyclobutyl)-5-methyl-6-[(5-oxo-4,5-dihydro-1H-1,2,4-triazol-1-yl)methyl]-1-(3,3,3-trifluoropropyl)thieno[2,3-d]pyrimidine-2,4(1H,3H)-dione] | 180 nM |
| COCCn1c(=O)n(C2(C)CCC2)c(=O)c2c(C)c(CN3CCNC3=NC#N)sc21 [Example 140, [1-{[1-(2-Methoxyethyl)-5-methyl-3-(1-methylcyclobutyl)-2,4-dioxo-1,2,3,4-tetrahydrothieno[2,3-d]pyrimidin-6-yl]methyl}imidazolidine-2-ylidene]cyanamide] | 230 nM |
| COCCn1c(=O)n(C2(C)CCC2)c(=O)c2c(C)c(CN3CCNC3=O)sc21 [Example 139, 1-(2-Methoxyethyl)-5-methyl-3-(1-methylcyclobutyl)-6-[(2-oxoimidazolidin-1-yl)methyl]thieno[2,3-d]pyrimidine-2,4(1H,3H)-dione] | 310 nM |
| COC(=O)N=C1NCCN1Cc1sc2c(c1C)c(=O)n(C1CC1)c(=O)n2CC1CCCO1 (racemic) [Example 42, Methyl [1-{[3-cyclopropyl-5-methyl-2,4-dioxo-1-(tetrahydrofuran-2-ylmethyl)-1,2,3,4-tetrahydrothieno[2,3-d]pyrimidin-6-yl]methyl}imidazolidin-2-ylidene]carbamate] | 10 nM |
| Cc1c(CN2CCNC2=O)sc2c1c(=O)n(C1CC1C)c(=O)n2CCOC(F)(F)F (racemic) [Example 261, 5-Methyl-3-(2-methylcyclopropyl)-6-[(2-oxoimidazolidin-1-yl)methyl]-1-[2-(trifluoromethoxy)ethyl]thieno[2,3-d]pyrimidine-2,4(1H,3H)-dione] | 15 nM |
| Cc1c(CN2CCNC2=O)sc2c1c(=O)n(C1CC1C)c(=O)n2CCC(F)(F)C(F)F (single isomer, unassigned) [Example 246, 5-Methyl-3-(2-methylcyclopropyl)-6-[(2-oxoimidazolidin-1-yl)methyl]-1-(3,3,4,4-tetrafluorobutyl)thieno[2,3-d]pyrimidine-2,4(1H,3H)-dione] | 22 nM |
| Cc1c(CN2CCNC2=O)sc2c1c(=O)n(C1CC1C)c(=O)n2CCC(F)(F)C(F)F (racemic) [Example 245, 5-Methyl-3-(2-methylcyclopropyl)-6-[(2-oxoimidazolidin-1-yl)methyl]-1-(3,3,4,4-tetrafluorobutyl)thieno[2,3-d]pyrimidine-2,4(1H,3H)-dione] | 6.7 nM |
| COCCn1c(=O)n(C2CC2(C)C)c(=O)c2c(C)c(CN3CCNC3=O)sc21 (single isomer, unassigned) [Example 104, 3-(2,2-Dimethylcyclopropyl)-1-(2-methoxyethyl)-5-methyl-6-[(2-oxoimidazolidin-1-yl)methyl]thieno[2,3-d]pyrimidine-2,4(1H,3H)-dione] | 35 nM |
| COCCn1c(=O)n(C2CC2C(F)(F)F)c(=O)c2c(C)c(CN3CCNC3=O)sc21 (single isomer, unassigned) [Example 295, 1-(2-Methoxyethyl)-5-methyl-6-[(2-oxoimidazolidin-1-yl)methyl]-3-[2-(trifluoromethyl)cyclopropyl]thieno[2,3-d]pyrimidine-2,4(1H,3H)-dione] | 120 nM |
| CCOCCn1c(=O)n(C2(C)CC2)c(=O)c2c(C)c(CN3CCNC3=O)sc21 [Example 77, 1-(2-Ethoxyethyl)-5-methyl-3-(1-methylcyclopropyl)-6-[(2-oxoimidazolidin-1-yl)methyl]thieno[2,3-d]pyrimidine-2,4(1H,3H)-dione] | 77 nM |
| CO[C@H]1C[C@@H](n2c(=O)c3c(C)c(CN4CCNC(=O)C4=O)sc3n(CCC(F)(F)F)c2=O)C1 [Example 157, 6-[(2,3-Dioxopiperazin-1-yl)methyl]-3-(cis-3-methoxycyclobutyl)-5-methyl-1-(3,3,3-trifluoropropyl)thieno[2,3-d]pyrimidine-2,4(1H,3H)-dione] | 63 nM |
| Cc1c(Cn2nc[nH]c2=O)sc2c1c(=O)n(C1(C)CC1)c(=O)n2CC1CCC1 [Example 62, 1-(Cyclobutylmethyl)-5-methyl-3-(1-methylcyclopropyl)-6-[(5-oxo-4,5-dihydro-1H-1,2,4-triazol-1-yl)methyl]thieno[2,3-d]pyrimidine-2,4(1H,3H)-dione] | 65 nM |
| Cc1c(CN2CCNC2=O)sc2c1c(=O)n(C1CC1C)c(=O)n2CCC(F)(F)F (racemic) [Example 93, 5-Methyl-3-(2-methylcyclopropyl)-6-[(2-oxoimidazolidin-1-yl)methyl]-1-(3,3,3-trifluoropropyl)thieno[2,3-d]pyrimidine-2,4(1H,3H)-dione] | 1.8 nM |
| Cc1c(Cn2nc[nH]c2=O)sc2c1c(=O)n(C1CC1)c(=O)n2CC1CC1(F)F (single isomer, unassigned; enantiomer 1) [Example 21, 3-Cyclopropyl-1-[(2,2-difluorocyclopropyl)methyl]-5-methyl-6-[(5-oxo-4,5-dihydro-1H-1,2,4-triazol-1-yl)methyl]thieno[2,3-d]pyrimidine-2,4(1H,3H)-dione (enantiomer 1)] | 53 nM |
| Cc1c(CN2CCNC2=O)sc2c1c(=O)n(C1CCC1)c(=O)n2CCC(F)(F)F [Example 110, 3-Cyclobutyl-5-methyl-6-[(2-oxoimidazolidin-1-yl)methyl]-1-(3,3,3-trifluoropropyl)thieno[2,3-d]pyrimidine-2,4(1H,3H)-dione] | 0.59 nM |
| Cc1c(CN2CCNC2=O)sc2c1c(=O)n(C1CCCC1)c(=O)n2CCC(F)(F)F [Example 184, 3-Cyclopentyl-5-methyl-6-[(2-oxoimidazolidin-1-yl)methyl]-1-(3,3,3-trifluoropropyl)thieno[2,3-d]pyrimidine-2,4(1H,3H)-dione] | 6.9 nM |
| Cc1c(CN2CCNC(=O)C2=O)sc2c1c(=O)n(C1CC3(CCC3)C1)c(=O)n2CCC(F)(F)F [Example 177, 6-[(2,3-Dioxopiperazin-1-yl)methyl]-5-methyl-3-(spiro[3.3]hept-2-yl)-1-(3,3,3-trifluoropropyl)thieno[2,3-d]pyrimidine-2,4(1H,3H)-dione] | 17 nM |
| Cc1c(Cn2nc[nH]c2=O)sc2c1c(=O)n([C@H]1C[C@@H]1C)c(=O)n2CC(F)(F)F [Example 321, 5-Methyl-3-[(1S,2S)-2-methylcyclopropyl]-6-[(5-oxo-4,5-dihydro-1H-1,2,4-triazol-1-yl)methyl]-1-(2,2,2-trifluoroethyl)thieno[2,3-d]pyrimidine-2,4(1H, 3H)-dione] | 17 nM |
| COCCn1c(=O)n(C2CCC2)c(=O)c2c(C)c(CN3CCNC(=O)C3=O)sc21 [Example 118, 3-Cyclobutyl-6-[(2,3-dioxopiperazin-1-yl)methyl]-1-(2-methoxyethyl)-5-methylthieno[2,3-d]pyrimidine-2,4(1H,3H)-dione] | 14 nM |
| Cc1c(CN2CCNC2=O)sc2c1c(=O)n(C1COC1)c(=O)n2CCC(F)(F)F [Example 130, 5-Methyl-3-(oxetan-3-yl)-6-[(2-oxoimidazolidin-1-yl)methyl]-1-(3,3,3-trifluoropropyl)thieno[2,3-d]pyrimidine-2,4(1H,3H)-dione] | 14 nM |
| Cc1c(CN2CCNC2=O)sc2c1c(=O)n(C1CC1)c(=O)n2C [Example 1, 3-Cyclopropyl-1,5-dimethyl-6-[(2-oxoimidazolidin-1-yl)methyl]thieno[2,3-d]pyrimidine-2,4(1H,3H)-dione] | 20 nM |
